Results: US20230416849A1, “METHODS FOR DETECTING VIRAL RNA USING ATP-RELEASING NUCLEOTIDES” (priority 2020, published 2023)

Target: luciferase (Photinus pyralis, UniProt P08659)
Test: Reactivity of apyrase ATP-depleted nucleotide stocks with luciferase (background signal)
Type: biochemical
Source text: ARNs were investigated as a source of background signal. There are two possible sources of background resulting from ARNs: (1) residual ATP contamination from the insufficient purification, and (2) the potential for these nucleotides to be accepted as substrates by luciferase. While ATP contamination can be removed, the kinetics of a nucleotide to react with luciferase is intrinsic to the molecule and thus much more difficult to manipulate. Apyrase was used to deplete nucleotide stocks of ATP in order to compare their reactivity with luciferase. […] However, dCp4A had high levels of ATP contamination.

Chain of luciferase (P08659 whole entry): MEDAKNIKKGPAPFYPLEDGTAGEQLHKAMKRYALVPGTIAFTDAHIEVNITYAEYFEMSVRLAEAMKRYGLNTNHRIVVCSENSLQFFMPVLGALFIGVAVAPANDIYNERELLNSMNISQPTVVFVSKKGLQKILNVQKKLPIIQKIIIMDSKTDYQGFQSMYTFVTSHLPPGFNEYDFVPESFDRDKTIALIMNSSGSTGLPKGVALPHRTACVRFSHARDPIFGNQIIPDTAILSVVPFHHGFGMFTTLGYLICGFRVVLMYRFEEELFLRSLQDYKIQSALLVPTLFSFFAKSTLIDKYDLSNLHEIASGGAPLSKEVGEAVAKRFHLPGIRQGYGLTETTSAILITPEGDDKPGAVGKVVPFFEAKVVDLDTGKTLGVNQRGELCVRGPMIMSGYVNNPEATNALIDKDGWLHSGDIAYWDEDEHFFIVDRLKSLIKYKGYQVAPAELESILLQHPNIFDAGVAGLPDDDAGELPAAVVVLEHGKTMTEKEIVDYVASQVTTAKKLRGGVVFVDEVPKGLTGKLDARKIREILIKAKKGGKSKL

Structure (SMILES) | activity with luciferase compared with pyrimidine counterparts (dCp4A and dTp4A)
Nc1ncnc2c1ncn2[C@@H]1O[C@H](COP(=O)(O)OP(=O)(O)OP(=O)(O)OP(=O)(O)OC[C@H]2O[C@@H](n3cnc4c(N)ncnc43)C[C@@H]2O)[C@@H](O)[C@H]1O [dAp4A, deoxyadenosine-5′-tetraphosphate-P4-5′-adenosine] | higher activity
Nc1nc2c(ncn2[C@H]2C[C@H](O)[C@@H](COP(=O)(O)OP(=O)(O)OP(=O)(O)OP(=O)(O)OC[C@H]3O[C@@H](n4cnc5c(N)ncnc54)[C@H](O)[C@@H]3O)O2)c(=O)[nH]1 [dGp4A, deoxyguanosine-5′-tetraphosphate-P4-5′-adenosine] | higher activity
